These results are taken from the supplement of paper PMC11061612.

What all share (test): Bliss excess, mean over the matrix (fraction); higher = more synergy
In assay [1] the test system is OVKATE (Ovarian Carcinoma). Summed up: (§1)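 After 24 hours at 37°C and 5% CO2 in 1536-well plates, cells in DMEM/F12 or RPMI plus 10% FBS received two-drug dose matrices for 72 hours. Viability came from CellTiter-Glo 2.0 luminescence and was scaled as inhibition, anchored at 0 by vehicle wells and at 1 by blank wells. Combination Emax is taken as the second-highest inhibition in the matrix, and Bliss excess as the observed combination effect less EA + EB − EA·EB, with EA and EB the single-agent effects.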

The test system of a further assay is MG-63 (Osteosarcoma). The method, boiled down: as §1
The subject of assay [2] is SCC90 (Head and Neck Carcinoma). The method, boiled down: as §1
In another assay the test system is SK-MEL-24 (Melanoma). The method, boiled down: as §1
Assay [3] relates to NCI-H2170 (Squamous Cell Lung Carcinoma). Summed up:
as §1

The subject of a further assay is DK-MG (Glioblastoma). Summed up: as §1
Assay [4] relates to CAL-85-1 (Breast Carcinoma). Summed up: as §1
Assay [5] deals with NCI-H1048 (Small Cell Lung Carcinoma). Summed up: as §1
The subject of assay [6] is TK (B-Cell Non-Hodgkin's Lymphoma). Summed up: as §1
Assay [7] relates to BT-474 (Breast Carcinoma). The method, boiled down: as §1
Assay [8] concerns NTERA-2-cl-D1 (Other Solid Carcinomas). The method, boiled down:
as §1

The next assay concerns SK-N-DZ (Neuroblastoma). Summed up:
as §1

The test system of assay [9] is SBC-3 (Small Cell Lung Carcinoma). Summed up:
as §1

A further assay deals with C32 (Melanoma). The method, boiled down:
as §1

Assay [10] deals with SBC-5 (Small Cell Lung Carcinoma). Summed up:
as §1

A further assay has as its system NCI-H2452 (Mesothelioma). The method, boiled down:
as §1

The test system of assay [11] is ATN-1 (T-Lymphoblastic Leukemia). Summed up:
as §1

Assay [12] concerns JURL-MK1 (Chronic Myelogenous Leukemia). The method, boiled down: as §1
Assay [13] relates to IGROV-1 (Ovarian Carcinoma). The method, boiled down:
as §1

In assay [14] the test system is OCI-M1 (Acute Myeloid Leukemia). Summed up: as §1

For the molecule `CN(CCO)CC[C@H](CSc1ccccc1)Nc1ccc(S(=O)(=O)NC(=O)c2ccc(N3CCC([C@@H](O)c4ccccc4-c4ccc(Cl)cc4)CC3)cc2)cc1S(=O)(=O)C(F)(F)F` [AZD4320] + C=CCn1c(=O)c2cnc(Nc3ccc(N4CCN(C)CC4)cc3)nc2n1-c1cccc(C(C)(C)O)n1 [AZD1775] (first compound max 1 µM, partner max 1 µM), the Bliss excess in assay [1] was 0.0271; in the assay with MG-63 (Osteosarcoma), -0.0262; in assay [2], 0.0385; in the assay on SK-MEL-24 (Melanoma), 0.001; in assay [3], 0.0131; with DK-MG (Glioblastoma), -0.0789. The Bliss excess was 0.0019 in assay [4]; 0.27 in [5]; 0.0407 in assay [6]; -0.0232 in [7]; 0.13 in assay [8]; 0.0351 in the assay on SK-N-DZ (Neuroblastoma). For the same molecule, the Bliss excess in [9] is -0.0172; in the assay with C32 (Melanoma), 0.108; in assay [10], 0.0264; with NCI-H2452 (Mesothelioma) it was 0.0257; in [11] it was 0.0695; in assay [12], 0.0098. Besides, the Bliss excess came to 0.0505 in [13] and 0.0479 in [14].
Consider `CN(CCO)CC[C@H](CSc1ccccc1)Nc1ccc(S(=O)(=O)NC(=O)c2ccc(N3CCC([C@@H](O)c4ccccc4-c4ccc(Cl)cc4)CC3)cc2)cc1S(=O)(=O)C(F)(F)F` [AZD4320] + CN(C)CCCOc1ccc(-c2ccc3ncc4c(c3c2)n(C2CCOCC2)c(=O)n4C)cn1 [AZD0156] (first compound max 1 µM, 7x7, partner max 1 µM), for which the Bliss excess in assay [1] was -0.104; in the assay on MG-63 (Osteosarcoma) it was -0.0816; in [2], 0.0037; in the assay on SK-MEL-24 (Melanoma) it was -0.0838; in assay [3], -0.0054; in the assay on DK-MG (Glioblastoma), -0.0539. Further, the Bliss excess is -0.0472 in assay [4]; 0.0406 in assay [5]; 0.0083 in assay [6]; -0.057 in assay [7]; -0.0692 in assay [8]; 0.0238 in the assay on SK-N-DZ (Neuroblastoma). Moreover, the Bliss excess is -0.0809 in [9]; -0.0182 in the assay on C32 (Melanoma); -0.0481 in assay [10]; -0.0287 in the assay on NCI-H2452 (Mesothelioma); -0.0231 in assay [11]; -0.0368 in assay [12]. In addition, the Bliss excess was -0.0848 in [13] and -0.0094 in assay [14].
Turning to `CN(CCO)CC[C@H](CSc1ccccc1)Nc1ccc(S(=O)(=O)NC(=O)c2ccc(N3CCC([C@@H](O)c4ccccc4-c4ccc(Cl)cc4)CC3)cc2)cc1S(=O)(=O)C(F)(F)F` [AZD4320] + Cn1cnc2c(F)c(Nc3ccc(Br)cc3Cl)c(C(=O)NOCCO)cc21 [Selumetinib] (first compound max 1 µM, 7x7, partner max 3 µM), the Bliss excess is -0.0247 in [1]; -0.0179 with MG-63 (Osteosarcoma); 0.144 in assay [2]; -0.0168 in the assay with SK-MEL-24 (Melanoma); -0.0497 in [3]; 0.0286 in the assay with DK-MG (Glioblastoma). In addition, the Bliss excess is -0.0492 in [4]; 0.0198 in assay [5]; -0.032 in assay [6]; -0.002 in [7]; -0.0415 in [8]; -0.0273 in the assay with SK-N-DZ (Neuroblastoma). The Bliss excess in [9] was -0.0148; in the assay on C32 (Melanoma) it was 0.0196; in assay [10], 0.0547; with NCI-H2452 (Mesothelioma), -0.0688; in [11], -0.0611; in [12] it was 0.0111. In addition, the Bliss excess came to 0.0542 in assay [13] and 0.0503 in assay [14].
As for `COc1nnc2ccc(N3CCC(c4ccc(OCCN5CCN(C)C(=O)[C@H]5C)cc4)CC3)nn12` [AZD5153] + C=CCn1c(=O)c2cnc(Nc3ccc(N4CCN(C)CC4)cc3)nc2n1-c1cccc(C(C)(C)O)n1 [AZD1775] (first compound max 1 µM, partner max 1 µM), the Bliss excess is -0.0373 in assay [1]; -0.0419 in the assay on MG-63 (Osteosarcoma); -0.0282 in assay [2]; -0.0421 with SK-MEL-24 (Melanoma); 0.06 in [3]; -0.0209 with DK-MG (Glioblastoma). Besides, the Bliss excess was -0.0551 in assay [4]; -0.0823 in assay [5]; -0.0554 in assay [6]; -0.0279 in [7]; 0.0115 in assay [8]; -0.0084 in the assay on SK-N-DZ (Neuroblastoma). For the same molecule, the Bliss excess in assay [9] is -0.0111; in the assay with C32 (Melanoma), -0.0426; in assay [10] it was -0.015; in the assay on NCI-H2452 (Mesothelioma), -0.0525; in assay [11] it was -0.0494; in [12], -0.0006. Moreover, the results for the Bliss excess in [13] and in assay [14] were -0.0858 and -0.0449, respectively.
In the case of `COc1nnc2ccc(N3CCC(c4ccc(OCCN5CCN(C)C(=O)[C@H]5C)cc4)CC3)nn12` [AZD5153] + CC1(C)CCC(CN2CCN(c3ccc(C(=O)NS(=O)(=O)c4ccc(NCC5CCOCC5)c([N+](=O)[O-])c4)c(Oc4cnc5[nH]ccc5c4)c3)CC2)=C(c2ccc(Cl)cc2)C1 [Venetoclax] (first compound max 1 µM, 7x7, partner max 1 µM), the Bliss excess in [1] was -0.0037; in the assay with MG-63 (Osteosarcoma), -0.0509; in assay [2], 0.0009; with SK-MEL-24 (Melanoma), -0.0685; in assay [3] it was -0.0329; in the assay on DK-MG (Glioblastoma) it was -0.0766. The Bliss excess in [4] is -0.0582; in assay [5] it was 0.0165; in assay [6] it was 0.0193; in [7], -0.078; in assay [8] it was -0.0251; in the assay with SK-N-DZ (Neuroblastoma) it was 0.0059. Besides, the Bliss excess in assay [9] was -0.0545; in the assay on C32 (Melanoma), -0.0383; in [10], -0.0579; with NCI-H2452 (Mesothelioma) it was 0.0059; in assay [11], -0.0279; in [12], -0.0676. Besides, the Bliss excess in [13] is -0.0416; in [14], -0.062.
In the case of `COc1nnc2ccc(N3CCC(c4ccc(OCCN5CCN(C)C(=O)[C@H]5C)cc4)CC3)nn12` [AZD5153] + CCN(CCO)CCCOc1ccc2c(Nc3cc(CC(=O)Nc4cccc(F)c4)[nH]n3)ncnc2c1 [AZD2811] (first compound max 1 µM, 7x7, partner max 1 µM), the Bliss excess in assay [1] was -0.0668; with MG-63 (Osteosarcoma), -0.037; in [2], -0.0547; with SK-MEL-24 (Melanoma), -0.102; in assay [3], 0.0103; in the assay on DK-MG (Glioblastoma) it was -0.13. In addition, the Bliss excess in [4] was -0.0411; in assay [5], -0.042; in assay [6], 0.0124; in assay [7], -0.0197; in assay [8], -0.0385; with SK-N-DZ (Neuroblastoma), -0.0722. For the same molecule, the Bliss excess in assay [9] is -0.0225; in the assay with C32 (Melanoma), 0.0199; in assay [10] it was -0.0286; in the assay with NCI-H2452 (Mesothelioma), -0.0574; in assay [11], -0.127; in [12] it was -0.0258. Besides, the Bliss excess in [13] is -0.0574; in assay [14] it was 0.06.
